Measurements published in PubChem BioAssay (NCI).
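Test compounds were applied to cells in 96-well plates for 48 hours at 5 doses. Definition used: TGI = concentration required for complete inhibition of growth.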

Tests used:
Test in all cases: NCI-60 cell line screen, 48 h
[1] = test system: ACHN renal
[2] = test system: SNB-75 CNS
[3] = test system: UACC-62 melanoma
[4] = test system: NCI-H226 lung
[5] = test system: EKVX NSCLC
[6] = test system: MDA-N
[7] = test system: OVCAR-8 ovarian
[8] = test system: SK-MEL-28 melanoma
[9] = test system: HCT-15 colon
[10] = test system: OVCAR-5 ovarian
[11] = test system: BT-549 breast
[12] = test system: HT29 colon
[13] = test system: SK-OV-3 ovarian
[14] = test system: SW-620 colon
[15] = test system: MDA-MB-231 breast
[16] = test system: T-47D breast
[17] = test system: DU-145 prostate
[18] = test system: SF-295 CNS
[19] = test system: HCT-116 colon
[20] = test system: MDA-MB-435
[21] = test system: 786-0 renal
[22] = test system: LOX IMVI melanoma
[23] = test system: UACC-257 melanoma
[24] = test system: MALME-3M melanoma
[25] = test system: CCRF-CEM leukemia
[26] = test system: SK-MEL-2 melanoma
[27] = test system: A549 NSCLC
[28] = test system: A498 renal
[29] = test system: TK-10 renal
[30] = test system: CAKI-1 renal
[31] = test system: COLO 205 colon
[32] = test system: PC-3 prostate
[33] = test system: NCI-H460 lung
[34] = test system: NCI/ADR-RES ovarian
[35] = test system: OVCAR-4 ovarian
[36] = test system: UO-31 renal
[37] = test system: SN12C renal
[38] = test system: SF-539 CNS
[39] = test system: RXF 393 renal
[40] = test system: SF-268 CNS
[41] = test system: NCI-H23 lung
[42] = test system: HS 578T breast
[43] = test system: IGROV1 ovarian
[44] = test system: OVCAR-3 ovarian
[45] = test system: M14 melanoma
[46] = test system: SK-MEL-5 melanoma
[47] = test system: MCF7 breast
[48] = test system: HOP-62 NSCLC
[49] = test system: KM12 colon
[50] = test system: HL-60(TB) leukemia
[51] = test system: K-562 leukemia
[52] = test system: U251 CNS
[53] = test system: SR leukemia

CCOC(=O)O/C(=C\c1ccc(OC)cc1)c1c(OC(=O)OCC)n(C(=O)OCC)c2ccccc12
TGI [1]: > 100 µM | TGI [2]: > 100 µM | TGI [3]: > 100 µM | TGI [4]: > 100 µM | TGI [5]: > 100 µM | TGI [6]: > 100 µM | TGI [7]: > 100 µM | TGI [8]: > 100 µM | TGI [9]: > 100 µM | TGI [10]: > 100 µM | TGI [11]: > 100 µM | TGI [12]: > 100 µM | TGI [13]: 99.7 µM | TGI [14]: > 100 µM | TGI [15]: 77.6 µM | TGI [16]: > 100 µM | TGI [17]: > 100 µM | TGI [18]: > 100 µM | TGI [19]: > 100 µM | TGI [20]: > 100 µM | TGI [21]: > 100 µM | TGI [22]: > 100 µM | TGI [23]: > 100 µM | TGI [24]: > 100 µM | TGI [25]: > 100 µM | TGI [26]: > 100 µM | TGI [27]: > 100 µM | TGI [28]: 27.3 µM | TGI [29]: 93.7 µM | TGI [30]: > 100 µM | TGI [31]: > 100 µM | TGI [32]: > 100 µM | TGI [33]: 30.3 µM | TGI [34]: > 100 µM | TGI [35]: > 100 µM | TGI [36]: > 100 µM | TGI [37]: > 100 µM | TGI [38]: > 100 µM | TGI [39]: 67.9 µM | TGI [40]: > 100 µM | TGI [41]: > 100 µM | TGI [42]: > 100 µM | TGI [43]: > 100 µM | TGI [44]: > 100 µM | TGI [45]: > 100 µM | TGI [46]: > 100 µM | TGI [47]: > 100 µM | TGI [48]: > 100 µM | TGI [49]: > 100 µM | TGI [50]: > 100 µM | TGI [51]: > 100 µM | TGI [52]: > 100 µM | TGI [53]: > 100 µM
